Molecular target: recombinant human GST-SYK (Homo sapiens (Human), UniProt P43405)
Assay: Homogeneous Time-Resolved Fluorescence (HTRF) Assay for the Recombinant Human Syk Enzyme
Type: biochemical
Details: GST-SYK 5 pM, ATP 25 μM, biotinylated substrate peptide 250 nM, HTRF signal
Experimental: Homogeneous Time-Resolved Fluorescence (HTRF) Assay for the Recombinant Human Syk Enzyme
A recombinant GST-hSYK fusion protein was used to measure potency of compounds to inhibit human Syk activity. The recombinant human GST-SYK (Carna Biosciences #08-176) (5 pM final concentration) was incubated with various concentrations of the inhibitor diluted in DMSO (0.1% final concentration) for 10 minutes at room temperature in 15 mM Tris-HCl (pH 7.5), 0.01% tween 20, 2 mM DTT in 384 well plate format. To initiate the reaction the biotinylated substrate peptide (250 nM final concentration) that contains the phosphorylation site for Syk was added with magnesium (5 mM final concentration) and ATP (25 μM final concentration). Final volume of the reaction was 10 μL. Phosphorylation of the peptide was allowed to proceed for 45′ at room temperature. To quench the reaction and detect the phosphorylated product, 2 nM of a Europium-anti-phosphotyrosine antibody (Perkin Elmer #AD0161) and 70 nM SA-APC (Perkin-Elmer #CR130-100) were added together in 15 mM Tris pH 7.5, 40 mM EDTA, 0.01% tween 20. Final volume of the quenching solution was 10 μL.
The resulting HTRF signal was measured after 30 minutes on an EnVision (Perkin-Elmer) reader using a time-resolved fluorescence protocol. Table A below lists activities as IC50 values (nM) for representative compounds of the invention.

Row | Compound | IC50
1 | C[S+]([O-])c1ccccc1-c1cc(Nc2nccc(C(F)(F)F)n2)cc(-c2cnc([C@]3(O)CC[C@@H](C(=O)O)C(C)(C)C3)s2)c1 (single isomer, unassigned) [Example 2.17, (1R,4S or 1S,4R)-4-hydroxy-2,2-dimethyl-4-{5-[2′-(methylsulfinyl)-5-{[4-(trifluoromethyl)pyrimidin-2-yl]amino}biphenyl-3-yl]-1,3-thiazol-2-yl}cyclohexanecarboxylic acid] | 15.3 nM
2 | CC1(C)C[C@](O)(c2ncc(-c3cc(Nc4nccc(C(F)(F)F)n4)cc(-c4ccc(F)cc4)c3)s2)CC[C@H]1C(=O)O (single isomer, unassigned) [Example 2.6, (1R,4S or 1S,4R)-4-[5-(4′-fluoro-5-{[4-(trifluoromethyl)pyrimidin-2-yl]amino}biphenyl-3-yl)-1,3-thiazol-2-yl]-4-hydroxy-2,2-dimethylcyclohexanecarboxylic acid] | 20.7 nM
3 | Cc1ccc(F)c(-c2cc(Nc3nccc(C(F)(F)F)n3)cc(-c3cnc([C@]4(O)CC[C@@H](C(=O)O)C(C)(C)C4)s3)c2)c1 (single isomer, unassigned) [Example 2.22, (1R,4S or 1S,4R)-4-[5-(2′-fluoro-5′-methyl-5{[4-(trifluoromethyl)pyrimidin-2 yl]amino}biphenyl-3-yl)-1,3-thiazol-2-yl]-4-hydroxy-2,2-dimethylcyclohexanecarboxylic acid] | 46 nM
4 | Cn1cc(-c2cc(Nc3nccc(C(F)(F)F)n3)cc(-c3cnc([C@@]4(O)CC[C@H](C(=O)O)C(C)(C)C4)s3)c2)cn1 (single isomer, unassigned) [Example 2.1, (1R,4S or 1S,4R)-4-Hydroxy-2,2-dimethyl-4-(5-(3-(1-methyl-1H-pyrazol-4-yl)-5-((4-(trifluoromethyl)pyrimidin-2-yl)amino)phenyl)thiazol-2-yl)cyclohexanecarboxylic acid] | 48 nM
5 | OC1(c2ncc(-c3cc(Nc4nccc(C(F)(F)F)n4)cc(-c4nnn[nH]4)c3)s2)CCC1 [Example 1.4, 1-(5-(3-(1H-Tetrazol-5-yl)-5-((4-(trifluoromethyl)pyrimidin-2-yl)amino)phenyl)thiazol-2-yl)cyclobutanol] | 77.7 nM
6 | CC/C=C\c1cc(Nc2nccc(C(F)(F)F)n2)cc(-c2cnc([C@]3(O)CC[C@@H](C(=O)O)C(C)(C)C3)s2)c1 (single isomer, unassigned) [Example 2.26, (1R,4S or 1S,4R)-4-[5-(3-[(1Z)-but-1-en-1-yl]-5-{[4-(trifluoromethyl)pyrimidin-2-yl]amino}phenyl)-1,3-thiazol-2-yl]-4-hydroxy-2,2-dimethylcyclohexanecarboxylic acid] | 2.68 nM
7 | CC1(C)CC(O)(c2ncc(-c3cc(Nc4nccc(C(F)(F)F)n4)cc(S(C)(=O)=O)c3)s2)CCC1C(=O)O (single isomer, unassigned) [Example 1.9, (1R,4S or 1S,4R)-4-hydroxy-2,2-dimethyl-4-{5-[3-(methylsulfonyl)-5-{[4-(trifluoromethyl)pyrimidin-2-yl]amino}phenyl]-1,3-thiazol-2-yl}cyclohexanecarboxylic acid] | 5.1 nM
8 | CC1(C)C[C@](O)(c2ncc(-c3cc(Nc4nccc(C(F)(F)F)n4)cc(-c4ccsc4)c3)s2)CC[C@H]1C(=O)O (single isomer, unassigned) [Example 2.8, (1R,4S or 1S,4R)-4-hydroxy-2,2-dimethyl-4-[5-(3-thiophen-3-yl-5-{[4-(trifluoromethyl)pyrimidin-2-yl]amino}phenyl)-1,3-thiazol-2-yl]cyclohexanecarboxylic acid] | 11.7 nM
9 | CC1(C)CC(O)(c2ncc(-c3cc(C#N)cc(Nc4nccc(C(F)(F)F)n4)c3)s2)CCC1C(=O)O (single isomer, unassigned) [Example 1.8, (1R,4S or 1S,4R)-4-[5-(3-cyano-5-{[4-(trifluoromethyl)pyrimidin-2-yl]amino}phenyl)-1,3-thiazol-2-yl]-4-hydroxy-2,2-dimethylcyclohexanecarboxylic acid] | 5.77 nM
10 | CC1(C)C[C@](O)(c2ncc(-c3cc(Nc4nccc(C(F)(F)F)n4)cc(-c4cncc(F)c4)c3)s2)CC[C@H]1C(=O)O (single isomer, unassigned) [Example 2.15, (1R,4S or 1S,4R)-4-{5-[3-(5-fluoropyridin-3-yl)-5-{[4-(trifluoromethyl)pyrimidin-2-yl]amino}phenyl]-1,3-thiazol-2-yl}-4-hydroxy-2,2-dimethylcyclohexanecarboxylic acid] | 3.22 nM
11 | Cc1cscc1-c1cc(Nc2nccc(C(F)(F)F)n2)cc(-c2cnc([C@]3(O)CC[C@@H](C(=O)O)C(C)(C)C3)s2)c1 (single isomer, unassigned) [Example 2.24, (1R,4S or 1S,4R)-4-hydroxy-2,2-dimethyl-4-{5-[3-(4-methylthiophen-3-yl)-5-{[4-(trifluoromethyl)pyrimidin-2-yl]amino}phenyl]-1,3-thiazol-2-yl}cyclohexanecarboxylic acid] | 24.6 nM
12 | CC1(C)C[C@](O)(c2ncc(-c3cc(Nc4nccc(C(F)(F)F)n4)cc(-c4ccccc4F)c3)s2)CC[C@H]1C(=O)O (single isomer, unassigned) [Example 2.25, (1R,4S or 1S,4R)-4-[5-(2′-fluoro-5-{[4-(trifluoromethyl)pyrimidin-2-yl]amino}biphenyl-3-yl)-1,3-thiazol-2-yl]-4-hydroxy-2,2-dimethylcyclohexanecarboxylic acid] | 35.2 nM
13 | CC1(C)C[C@](O)(c2ncc(-c3cc(Nc4nccc(C(F)(F)F)n4)cc(-c4cccc(C(=O)NC5CC5)c4)c3)s2)CC[C@H]1C(=O)O (single isomer, unassigned) [Example 2.9, (1R,4S or 1S,4R)-4-{5-[3′-(cyclopropylcarbamoyl)-5-{[4-(trifluoromethyl)pyrimidin-2-yl]amino}biphenyl-3-yl]-1,3-thiazol-2-yl}-4-hydroxy-2,2-dimethylcyclohexanecarboxylic acid] | 2.78 nM
14 | CC1(C)C[C@](O)(c2ncc(-c3cc(Nc4nccc(C(F)(F)F)n4)cc(-c4ccc(C#N)c(F)c4)c3)s2)CC[C@H]1C(=O)O (single isomer, unassigned) [Example 3.3, (1R,4S or 1S,4R)-4-[5-(4′-cyano-3′-fluoro-5-{[4-(trifluoromethyl)pyrimidin-2-yl]amino}biphenyl-3-yl)-1,3-thiazol-2-yl]-4-hydroxy-2,2-dimethylcyclohexanecarboxylic acid] | 34.8 nM
15 | Cc1cc(-c2cc(Nc3nccc(C(F)(F)F)n3)cc(-c3cnc([C@]4(O)CC[C@@H](C(=O)O)C(C)(C)C4)s3)c2)ccc1F (single isomer, unassigned) [Example 2.16, (1R,4S or 1S,4R)-4-[5-(4′-fluoro-3′-methyl-5-{[4-(trifluoromethyl)pyrimidin-2-yl]amino}biphenyl-3-yl)-1,3-thiazol-2-yl]-4-hydroxy-2,2-dimethylcyclohexanecarboxylic acid] | 153 nM
16 | COc1ccc(-c2cc(Nc3nccc(C(F)(F)F)n3)cc(-c3cnc([C@]4(O)CC[C@@H](C(=O)O)C(C)(C)C4)s3)c2)cc1F (single isomer, unassigned) [Example 2.12, (1R,4S or 1S,4R)-4-[5-(3′-fluoro-4′-methoxy-5-{[4-(trifluoromethyl)pyrimidin-2-yl]amino}biphenyl-3-yl)-1,3-thiazol-2-yl]-4-hydroxy-2,2-dimethylcyclohexanecarboxylic acid] | 35.3 nM
17 | C/C=C(\C)c1cc(Nc2nccc(C(F)(F)F)n2)cc(-c2cnc([C@]3(O)CC[C@@H](C(=O)O)C(C)(C)C3)s2)c1 (single isomer, unassigned) [Example 2.28, (1R,4S or 1S,4R)-4-hydroxy-2,2-dimethyl-4-[5-(3-[(1E)-1-methylprop-1-en-1-yl]-5-{[4-(trifluoromethyl)pyrimidin-2-yl]amino}phenyl)-1,3-thiazol-2-yl]cyclohexanecarboxylic acid] | 2.75 nM
18 | C=C(C)c1cc(Nc2nccc(C(F)(F)F)n2)cc(-c2cnc([C@]3(O)CC[C@@H](C(=O)O)C(C)(C)C3)s2)c1 (single isomer, unassigned) [Example 2.30, (1R,4S or 1S,4R)-4-hydroxy-2,2-dimethyl-4-{5-[3-(1-methylethenyl)-5-{[4-(trifluoromethyl)pyrimidin-2-yl]amino}phenyl]-1,3-thiazol-2-yl}cyclohexanecarboxylic acid] | 3.94 nM
19 | CC(C)(C)/C=C\c1cc(Nc2nccc(C(F)(F)F)n2)cc(-c2cnc([C@]3(O)CC[C@@H](C(=O)O)C(C)(C)C3)s2)c1 (single isomer, unassigned) [Example 2.29, (1R,4S or 1S,4R)-4-[5-(3-[(1Z)-3,3-dimethylbut-1-en-1-yl]-5-{[4-(trifluoromethyl)pyrimidin-2-yl]amino}phenyl)-1,3-thiazol-2-yl]-4-hydroxy-2,2-dimethylcyclohexanecarboxylic acid] | 16.8 nM
20 | CCOC(=O)[C@H]1CC[C@](O)(c2ncc(-c3cc(Nc4nccc(C(F)(F)F)n4)cc(-c4cn[nH]c4)c3)s2)C[C@H]1C (racemic) [Example 1.1, Ethyl rel-(1S,2R,4R or S)-4-(5-(3-(1H-pyrazol-4-yl)-5-((4-(trifluoromethyl)pyrimidin-2-yl)amino)phenyl)thiazol-2-yl)-4-hydroxy-2-methylcyclohexanecarboxylate] | 162 nM
